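Test compounds were applied to cells in 96-well plates for 48 hours at 5 doses. Abbreviation: GI50, concentration required for 50% inhibition of growth. TGI is the concentration that stops growth completely.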
Experiments:
Test in all cases: NCI-60 cell line screen, 48 h
NCI-H522 lung = test system: NCI-H522 lung
HCC-2998 colon = test system: HCC-2998 colon
UACC-257 melanoma = test system: UACC-257 melanoma
MCF7 breast = test system: MCF7 breast
SW-620 colon = test system: SW-620 colon
TK-10 renal = test system: TK-10 renal
HOP-62 NSCLC = test system: HOP-62 NSCLC
RXF 393 renal = test system: RXF 393 renal
SK-OV-3 ovarian = test system: SK-OV-3 ovarian
SNB-19 CNS = test system: SNB-19 CNS
LOX IMVI melanoma = test system: LOX IMVI melanoma
OVCAR-8 ovarian = test system: OVCAR-8 ovarian
M14 melanoma = test system: M14 melanoma
SK-MEL-2 melanoma = test system: SK-MEL-2 melanoma
MDA-MB-231 breast = test system: MDA-MB-231 breast
SF-268 CNS = test system: SF-268 CNS
HS 578T breast = test system: HS 578T breast
CAKI-1 renal = test system: CAKI-1 renal
KM12 colon = test system: KM12 colon
U251 CNS = test system: U251 CNS
HL-60(TB) leukemia = test system: HL-60(TB) leukemia
OVCAR-4 ovarian = test system: OVCAR-4 ovarian
NCI-H460 lung = test system: NCI-H460 lung
HT29 colon = test system: HT29 colon
A549 NSCLC = test system: A549 NSCLC
HCT-15 colon = test system: HCT-15 colon
SK-MEL-5 melanoma = test system: SK-MEL-5 melanoma
IGROV1 ovarian = test system: IGROV1 ovarian
NCI-H23 lung = test system: NCI-H23 lung
MOLT-4 leukemia = test system: MOLT-4 leukemia
786-0 renal = test system: 786-0 renal
PC-3 prostate = test system: PC-3 prostate
SF-539 CNS = test system: SF-539 CNS
UO-31 renal = test system: UO-31 renal
CCRF-CEM leukemia = test system: CCRF-CEM leukemia
DU-145 prostate = test system: DU-145 prostate
SNB-75 CNS = test system: SNB-75 CNS
UACC-62 melanoma = test system: UACC-62 melanoma
ACHN renal = test system: ACHN renal
NCI/ADR-RES ovarian = test system: NCI/ADR-RES ovarian
NCI-H226 lung = test system: NCI-H226 lung
BT-549 breast = test system: BT-549 breast
HCT-116 colon = test system: HCT-116 colon
MDA-MB-435 = test system: MDA-MB-435
OVCAR-3 ovarian = test system: OVCAR-3 ovarian
COLO 205 colon = test system: COLO 205 colon
SK-MEL-28 melanoma = test system: SK-MEL-28 melanoma
EKVX NSCLC = test system: EKVX NSCLC
OVCAR-5 ovarian = test system: OVCAR-5 ovarian
SN12C renal = test system: SN12C renal
RPMI-8226 leukemia = test system: RPMI-8226 leukemia
MALME-3M melanoma = test system: MALME-3M melanoma
SR leukemia = test system: SR leukemia
A498 renal = test system: A498 renal
T-47D breast = test system: T-47D breast
HOP-92 NSCLC = test system: HOP-92 NSCLC
SF-295 CNS = test system: SF-295 CNS
K-562 leukemia = test system: K-562 leukemia

OC(COc1cccc2ccccc12)CN1CCN(c2ccc(Cl)cc2)CC1 (stereo unspecified)
GI50 (NCI-H522 lung): 15.7 µM | TGI (NCI-H522 lung): 43.5 µM | GI50 (HCC-2998 colon): > 100 µM | TGI (HCC-2998 colon): > 100 µM | GI50 (UACC-257 melanoma): 42.3 µM | TGI (UACC-257 melanoma): > 100 µM | GI50 (MCF7 breast): 29.9 µM | TGI (MCF7 breast): > 100 µM | GI50 (SW-620 colon): 17.9 µM | TGI (SW-620 colon): > 100 µM | GI50 (TK-10 renal): 10.1 µM | TGI (TK-10 renal): 26.5 µM | GI50 (HOP-62 NSCLC): 8.53 µM | TGI (HOP-62 NSCLC): 29.6 µM | GI50 (RXF 393 renal): 28.6 µM | TGI (RXF 393 renal): 75.9 µM | GI50 (SK-OV-3 ovarian): 14.7 µM | TGI (SK-OV-3 ovarian): 45.2 µM | GI50 (SNB-19 CNS): 17 µM | TGI (SNB-19 CNS): 45.4 µM | GI50 (LOX IMVI melanoma): 26.3 µM | TGI (LOX IMVI melanoma): > 100 µM | GI50 (OVCAR-8 ovarian): 15.2 µM | TGI (OVCAR-8 ovarian): 41 µM | GI50 (M14 melanoma): 64.8 µM | TGI (M14 melanoma): > 100 µM | GI50 (SK-MEL-2 melanoma): 21.7 µM | TGI (SK-MEL-2 melanoma): 60.3 µM | GI50 (MDA-MB-231 breast): 19.5 µM | TGI (MDA-MB-231 breast): 69 µM | GI50 (SF-268 CNS): 19.1 µM | TGI (SF-268 CNS): 45.5 µM | GI50 (HS 578T breast): 23.4 µM | TGI (HS 578T breast): > 100 µM | GI50 (CAKI-1 renal): 5.8 µM | TGI (CAKI-1 renal): 31.4 µM | GI50 (KM12 colon): 38.3 µM | TGI (KM12 colon): > 100 µM | GI50 (U251 CNS): 12.6 µM | TGI (U251 CNS): 29.9 µM | GI50 (HL-60(TB) leukemia): > 100 µM | TGI (HL-60(TB) leukemia): > 100 µM | GI50 (OVCAR-4 ovarian): 21.7 µM | TGI (OVCAR-4 ovarian): 49.3 µM | GI50 (NCI-H460 lung): 15.7 µM | TGI (NCI-H460 lung): > 100 µM | GI50 (HT29 colon): 16.6 µM | TGI (HT29 colon): 77.6 µM | GI50 (A549 NSCLC): 19.4 µM | TGI (A549 NSCLC): > 100 µM | GI50 (HCT-15 colon): > 100 µM | TGI (HCT-15 colon): > 100 µM | GI50 (SK-MEL-5 melanoma): 55.8 µM | TGI (SK-MEL-5 melanoma): > 100 µM | GI50 (IGROV1 ovarian): 14.6 µM | TGI (IGROV1 ovarian): 40 µM | GI50 (NCI-H23 lung): 29.4 µM | TGI (NCI-H23 lung): > 100 µM | GI50 (MOLT-4 leukemia): > 100 µM | TGI (MOLT-4 leukemia): > 100 µM | GI50 (786-0 renal): 16.3 µM | TGI (786-0 renal): 33.1 µM | GI50 (PC-3 prostate): 15.3 µM | TGI (PC-3 prostate): 46.2 µM | GI50 (SF-539 CNS): 22.6 µM | TGI (SF-539 CNS): 68.5 µM | GI50 (UO-31 renal): 15.5 µM | TGI (UO-31 renal): 36.1 µM | GI50 (CCRF-CEM leukemia): > 100 µM | TGI (CCRF-CEM leukemia): > 100 µM | GI50 (DU-145 prostate): 38.9 µM | TGI (DU-145 prostate): > 100 µM | GI50 (SNB-75 CNS): 9.76 µM | TGI (SNB-75 CNS): 27.1 µM | GI50 (UACC-62 melanoma): 23.3 µM | TGI (UACC-62 melanoma): > 100 µM | GI50 (ACHN renal): 11.8 µM | TGI (ACHN renal): > 100 µM | GI50 (NCI/ADR-RES ovarian): 16.4 µM | TGI (NCI/ADR-RES ovarian): 61.1 µM | GI50 (NCI-H226 lung): 13.8 µM | TGI (NCI-H226 lung): 70.4 µM | GI50 (BT-549 breast): > 100 µM | TGI (BT-549 breast): > 100 µM | GI50 (HCT-116 colon): 23.4 µM | TGI (HCT-116 colon): > 100 µM | GI50 (MDA-MB-435): 38.8 µM | TGI (MDA-MB-435): > 100 µM | GI50 (OVCAR-3 ovarian): 23.8 µM | TGI (OVCAR-3 ovarian): 69.1 µM | GI50 (COLO 205 colon): > 100 µM | TGI (COLO 205 colon): > 100 µM | GI50 (SK-MEL-28 melanoma): 26.9 µM | TGI (SK-MEL-28 melanoma): 71.6 µM | GI50 (EKVX NSCLC): 21.3 µM | TGI (EKVX NSCLC): > 100 µM | GI50 (OVCAR-5 ovarian): > 100 µM | TGI (OVCAR-5 ovarian): > 100 µM | GI50 (SN12C renal): 51 µM | TGI (SN12C renal): > 100 µM | GI50 (RPMI-8226 leukemia): 42.9 µM | TGI (RPMI-8226 leukemia): > 100 µM | GI50 (MALME-3M melanoma): 22.5 µM | TGI (MALME-3M melanoma): 64.7 µM | GI50 (SR leukemia): > 100 µM | TGI (SR leukemia): > 100 µM | GI50 (A498 renal): 21.3 µM | TGI (A498 renal): 92 µM | GI50 (T-47D breast): 81.3 µM | TGI (T-47D breast): > 100 µM | GI50 (HOP-92 NSCLC): 5.02 µM | TGI (HOP-92 NSCLC): 28 µM | GI50 (SF-295 CNS): 11.4 µM | TGI (SF-295 CNS): 36.9 µM | GI50 (K-562 leukemia): > 100 µM | TGI (K-562 leukemia): > 100 µM

From PubChem BioAssay (NCI)
